Key:
Settings in all cases: treatment: drug + dasatinib (fixed dose, not stated); 5 days
SN12C [1] = experiment: minimum viability across doses, drug + dasatinib, relative to DMSO (fraction); higher = less growth inhibition
Experimental: (§1)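 Primary HTS combination arm: 8 RCC cell lines treated with 8 doses (up to 10 uM) of each library drug plus a fixed dose of dasatinib (dose not stated) for 5 days; viability read by CellTiter-Glo and normalised to DMSO. GI50 was fitted with XLfit, AUC is the area under the dose-response curve, and minimum viability is the lowest fraction of DMSO viability across doses.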

ACHN [2] = experiment: as above
Experimental: as §1

786-O [3] = experiment: as above
Experimental: as §1

TK-10 [4] = experiment: as above
Experimental: as §1

CAKI-1 [5] = experiment: as above
Experimental: as §1

UO-31 [6] = experiment: as above
Experimental: as §1

769-P [7] = experiment: as above
Experimental: as §1

A498 [8] = experiment: as above
Experimental: as §1

SN12C [9] = experiment: GI50 of drug in presence of dasatinib; higher = less potent
Experimental: as §1

ACHN [10] = experiment: as above
Experimental: as §1

786-O [11] = experiment: as above
Experimental: as §1

TK-10 [12] = experiment: as above
Experimental: as §1

CAKI-1 [13] = experiment: as above
Experimental: as §1

UO-31 [14] = experiment: as above
Experimental: as §1

769-P [15] = experiment: as above
Experimental: as §1

A498 [16] = experiment: as above
Experimental: as §1

SN12C [17] = experiment: AUC of dose-response viability curve, drug + dasatinib, normalised to DMSO (arbitrary (AUC of normalised viability)); higher = less growth inhibition
Experimental: as §1

ACHN [18] = experiment: as above
Experimental: as §1

786-O [19] = experiment: as above
Experimental: as §1

TK-10 [20] = experiment: as above
Experimental: as §1

CAKI-1 [21] = experiment: as above
Experimental: as §1

UO-31 [22] = experiment: as above
Experimental: as §1

769-P [23] = experiment: as above
Experimental: as §1

A498 [24] = experiment: as above
Experimental: as §1

Compound | GI50 of drug (ACHN [10]) | GI50 of drug (786-O [11]) | minimum viability across doses (SN12C [1]) | minimum viability across doses (ACHN [2]) | minimum viability across doses (786-O [3]) | minimum viability across doses (TK-10 [4]) | minimum viability across doses (CAKI-1 [5]) | minimum viability across doses (UO-31 [6]) | minimum viability across doses (769-P [7]) | minimum viability across doses (A498 [8]) | GI50 of drug (SN12C [9]) | GI50 of drug (TK-10 [12]) | GI50 of drug (CAKI-1 [13]) | GI50 of drug (UO-31 [14]) | GI50 of drug (769-P [15]) | GI50 of drug (A498 [16]) | AUC of dose-response viability curve (SN12C [17]) | AUC of dose-response viability curve (ACHN [18]) | AUC of dose-response viability curve (786-O [19]) | AUC of dose-response viability curve (TK-10 [20]) | AUC of dose-response viability curve (CAKI-1 [21]) | AUC of dose-response viability curve (UO-31 [22]) | AUC of dose-response viability curve (769-P [23]) | AUC of dose-response viability curve (A498 [24])
Cn1cc(C2=C(c3ccc(Cl)cc3Cl)C(=O)NC2=O)c2ccccc21 + Cc1nc(Nc2ncc(C(=O)Nc3c(C)cccc3Cl)s2)cc(N2CCN(CCO)CC2)n1 [dasatinib] | > 10000 nM | > 10 µM | 0.642 | 0.548 | 0.587 | 0.532 | 0.562 | 0.191 | 0.288 | 0.929 | > 10 µM | > 10 µM | > 10000 nM | 6.21 µM | 5.29 µM | > 10 µM | 2.53 | 2.2 | 2.55 | 2.74 | 0.956 | 3.15 | 2.36 | 3.8
O=C1c2ccccc2-c2n[nH]c3cccc1c23 + Cc1nc(Nc2ncc(C(=O)Nc3c(C)cccc3Cl)s2)cc(N2CCN(CCO)CC2)n1 [dasatinib] | 6750 nM | 5.35 µM | 0.629 | 0.261 | 0.351 | 0.407 | 0.106 | 0.529 | 0.558 | 0.693 | > 10 µM | 6.49 µM | 2880 nM | > 10 µM | > 10 µM | > 10 µM | 2.5 | 2.22 | 2.31 | 2.45 | 2.12 | 3.27 | 2.38 | 3.27
CN(C)CCOc1ccc(-c2nc(-c3ccncc3)c(-c3ccc4c(c3)CC/C4=N/O)[nH]2)cc1 + Cc1nc(Nc2ncc(C(=O)Nc3c(C)cccc3Cl)s2)cc(N2CCN(CCO)CC2)n1 [dasatinib] | 2480 nM | 3.72 µM | 0.476 | 0.0859 | 0.0096 | 0.497 | 0.0583 | 0.0511 | 0.0915 | 0.0493 | > 10 µM | 9.95 µM | 3900 nM | 8.34 µM | 3.46 µM | 3.76 µM | 2.57 | 2.29 | 2.6 | 3.03 | 2.33 | 3.9 | 2.3 | 3.54

More lines, main results first:

GI50 of drug (ACHN [10]) | GI50 of drug (786-O [11]) | Compound | minimum viability across doses (SN12C [1]) | minimum viability across doses (ACHN [2]) | minimum viability across doses (786-O [3]) | minimum viability across doses (TK-10 [4]) | minimum viability across doses (CAKI-1 [5]) | minimum viability across doses (UO-31 [6]) | minimum viability across doses (769-P [7]) | minimum viability across doses (A498 [8]) | GI50 of drug (SN12C [9]) | GI50 of drug (TK-10 [12]) | GI50 of drug (CAKI-1 [13]) | GI50 of drug (UO-31 [14]) | GI50 of drug (769-P [15]) | GI50 of drug (A498 [16]) | AUC of dose-response viability curve (SN12C [17]) | AUC of dose-response viability curve (ACHN [18]) | AUC of dose-response viability curve (786-O [19]) | AUC of dose-response viability curve (TK-10 [20]) | AUC of dose-response viability curve (CAKI-1 [21]) | AUC of dose-response viability curve (UO-31 [22]) | AUC of dose-response viability curve (769-P [23]) | AUC of dose-response viability curve (A498 [24])
578 nM | 0.196 µM | O=C1NCCc2[nH]c(-c3ccncc3)cc21 + Cc1nc(Nc2ncc(C(=O)Nc3c(C)cccc3Cl)s2)cc(N2CCN(CCO)CC2)n1 [dasatinib] | 0.0225 | 0.0122 | 0.00389 | 0.185 | 0.0883 | 0.0107 | 0.463 | 0.0141 | 4.17 µM | 2.04 µM | 718 nM | 2.31 µM | 8.35 µM | 3.11 µM | 2.23 | 1.72 | 1.73 | 2.27 | 1.98 | 3.26 | 2.35 | 3.35
> 10000 nM | > 10 µM | N#CC[C@H](C1CCCC1)n1cc(-c2ncnc3[nH]ccc23)cn1 + Cc1nc(Nc2ncc(C(=O)Nc3c(C)cccc3Cl)s2)cc(N2CCN(CCO)CC2)n1 [dasatinib] | 0.689 | 0.504 | 0.536 | 0.686 | 0.331 | 0.486 | 0.557 | 0.911 | > 10 µM | > 10 µM | 4270 nM | > 10 µM | > 10 µM | > 10 µM | 2.5 | 1.97 | 2.44 | 2.61 | 2.21 | 3.91 | 2.39 | 3.44
15.7 nM | > 10 µM | CS(=O)c1ccc(-c2nc(-c3ccc(F)cc3)c(-c3ccncc3)[nH]2)cc1 (configuration not stated) + Cc1nc(Nc2ncc(C(=O)Nc3c(C)cccc3Cl)s2)cc(N2CCN(CCO)CC2)n1 [dasatinib] | 0.716 | 0.434 | 0.746 | 0.655 | 0.516 | 0.962 | 0.593 | 0.893 | > 10 µM | > 10 µM | > 10000 nM | > 10 µM | > 10 µM | > 10 µM | 2.65 | 1.82 | 2.73 | 2.45 | 2.3 | 3.73 | 2.31 | 3.76
18.9 nM | 0.0858 µM | CC(C)CC(=O)Nc1n[nH]c2c1CN(C(=O)C1CCN(C)CC1)C2(C)C + Cc1nc(Nc2ncc(C(=O)Nc3c(C)cccc3Cl)s2)cc(N2CCN(CCO)CC2)n1 [dasatinib] | 0.00656 | 0.0258 | 0.0032 | 0.184 | 0.0614 | 0.0113 | 0.288 | 0.00865 | 0.248 µM | 2.84 µM | 842 nM | 1.96 µM | 3.22 µM | 1.29 µM | 1.7 | 1.11 | 1.21 | 2.43 | 1.99 | 3.13 | 2.32 | 2.59
69.6 nM | 0.018 µM | OCc1ccc(-c2ccc(-c3ccc(CO)s3)o2)s1 + Cc1nc(Nc2ncc(C(=O)Nc3c(C)cccc3Cl)s2)cc(N2CCN(CCO)CC2)n1 [dasatinib] | 0.0563 | 0.0471 | 0.0022 | 0.0365 | 0.00172 | 0.0841 | 0.0624 | 0.292 | 0.219 µM | 0.015 µM | 4.49 nM | 0.917 µM | 0.00916 µM | 1.7 µM | 1.8 | 1.2 | 1.04 | 0.849 | 0.396 | 3.23 | 0.925 | 2.69
